Results reported in ChEMBL document CHEMBL1255298, “Larger vancomycin doses (at least four grams per day) are associated with an increased incidence of nephrotoxicity” (Antimicrob Agents Chemother, 2008).

Tests used:
Homo sapiens [1] = organism: Homo sapiens; experiment: Nephrotoxicity in patient with gram-positive bacterial infection assessed as change in serum […] level at > 4 g/day measured within 72 hrs; type: toxicity, organism-based; settings: in vivo
Homo sapiens [2] = organism: Homo sapiens; experiment: Nephrotoxicity in patient with gram-positive bacterial infection assessed as serum […] level at > 4 g/day measured within 72 hrs; type: toxicity, organism-based; settings: in vivo

CN[C@H](CC(C)C)C(=O)N[C@H]1C(=O)N[C@@H](CC(N)=O)C(=O)N[C@H]2C(=O)N[C@H]3C(=O)N[C@H](C(=O)N[C@H](C(=O)O)c4cc(O)cc(O)c4-c4cc3ccc4O)[C@H](O)c3ccc(c(Cl)c3)Oc3cc2cc(c3O[C@@H]2O[C@H](CO)[C@@H](O)[C@H](O)[C@H]2O[C@H]2C[C@](C)(N)[C@H](O)[C@H](C)O2)Oc2ccc(cc2Cl)[C@H]1O [VANCOMYCIN]
Activity (Homo sapiens [1]): 45.6% | Activity (Homo sapiens [2]): 2.1 mg/dL
